In article PMC4187893, “Biochemical and Antiparasitic Properties of Inhibitors of the Plasmodium falciparum Calcium-Dependent Protein Kinase PfCDPK1” (Antimicrobial Agents and Chemotherapy, 2014):
Where two headings read alike, the source gives them in different places.

What was measured:
[1] = molecular target: T1, PfCDPK1 (Plasmodium falciparum, UniProt P62344); test: Radiometric assay, incorporation of 33P into MTIP; settings: for IC50 ratio (ATP depletion/radiometric assay): Kinase-Glo Plus IC50 / radiometric IC50; for IC50: read-out: IC50 Radiometric assay, ATP and MTIP at their respective Km values
T1 sequence (P62344 whole entry): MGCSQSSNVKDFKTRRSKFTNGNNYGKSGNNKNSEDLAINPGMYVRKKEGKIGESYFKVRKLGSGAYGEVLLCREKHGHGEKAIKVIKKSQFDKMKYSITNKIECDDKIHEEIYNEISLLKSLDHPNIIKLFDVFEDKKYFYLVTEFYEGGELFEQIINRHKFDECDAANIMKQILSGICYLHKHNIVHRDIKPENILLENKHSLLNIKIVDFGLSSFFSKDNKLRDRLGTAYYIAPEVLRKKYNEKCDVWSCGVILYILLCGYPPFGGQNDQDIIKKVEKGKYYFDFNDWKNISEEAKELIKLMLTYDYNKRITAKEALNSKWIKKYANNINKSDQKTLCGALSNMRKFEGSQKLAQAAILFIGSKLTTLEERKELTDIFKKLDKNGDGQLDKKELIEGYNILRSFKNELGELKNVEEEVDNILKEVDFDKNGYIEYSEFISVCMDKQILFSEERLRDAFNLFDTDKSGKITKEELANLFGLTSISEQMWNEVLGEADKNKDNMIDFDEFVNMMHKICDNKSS

[2] = molecular target: T1, PfCDPK1; test: Kinase-Glo Plus ATP depletion assay; settings: read-out: IC50 ATP depletion, ATP and MTIP at their respective Km values
[3] = molecular target: T1, PfCDPK1; settings: absence of MTIP; for IC50: mean (SD), n = 2
[4] = molecular target: PbCDPK1 (Plasmodium berghei, UniProt A0A509AHB6); test: Rh-ParM ADP sensor IC50 assay, PbCDPK1
Sequence of PbCDPK1 (A0A509AHB6 whole entry): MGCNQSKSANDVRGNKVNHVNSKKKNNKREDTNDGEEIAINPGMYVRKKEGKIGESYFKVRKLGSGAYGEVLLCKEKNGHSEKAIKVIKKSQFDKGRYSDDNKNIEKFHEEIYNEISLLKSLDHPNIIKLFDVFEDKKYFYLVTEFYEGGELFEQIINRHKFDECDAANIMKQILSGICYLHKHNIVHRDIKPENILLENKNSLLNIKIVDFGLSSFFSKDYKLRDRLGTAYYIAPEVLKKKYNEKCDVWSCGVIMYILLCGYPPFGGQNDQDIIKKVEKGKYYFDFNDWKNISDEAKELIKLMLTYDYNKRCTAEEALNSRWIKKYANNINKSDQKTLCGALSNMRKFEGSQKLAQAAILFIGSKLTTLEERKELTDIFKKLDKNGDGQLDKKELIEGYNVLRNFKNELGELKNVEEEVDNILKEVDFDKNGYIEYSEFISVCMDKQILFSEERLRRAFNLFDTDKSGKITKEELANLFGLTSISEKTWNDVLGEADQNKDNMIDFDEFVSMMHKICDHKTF

[5] = molecular target: PvCDPK1 (Plasmodium vivax, UniProt A5KBU9); test: Rh-ParM ADP sensor IC50 assay, PvCDPK1; settings: for IC50: read-out: IC50 PvCDPK1, Rh-ParM, absence of MTIP, mean (SD)
Sequence of PvCDPK1 (A5KBU9 entry or part of it): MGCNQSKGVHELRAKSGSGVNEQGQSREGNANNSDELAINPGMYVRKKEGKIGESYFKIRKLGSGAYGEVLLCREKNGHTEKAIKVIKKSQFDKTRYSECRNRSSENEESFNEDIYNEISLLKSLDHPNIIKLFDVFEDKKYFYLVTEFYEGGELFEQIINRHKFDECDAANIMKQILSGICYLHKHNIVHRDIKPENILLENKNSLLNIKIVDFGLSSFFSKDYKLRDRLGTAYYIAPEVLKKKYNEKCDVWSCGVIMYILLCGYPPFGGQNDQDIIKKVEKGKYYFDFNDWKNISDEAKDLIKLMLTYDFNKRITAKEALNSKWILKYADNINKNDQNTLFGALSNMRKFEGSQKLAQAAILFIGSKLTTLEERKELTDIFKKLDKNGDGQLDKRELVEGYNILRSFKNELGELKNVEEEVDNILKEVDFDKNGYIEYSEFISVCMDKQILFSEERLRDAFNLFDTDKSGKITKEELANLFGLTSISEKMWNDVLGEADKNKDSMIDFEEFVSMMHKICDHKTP

[6] = molecular target: PfCDPK1 T145Q (Plasmodium falciparum, UniProt P62344, T145Q); test: Rh-ParM ADP sensor assay, gatekeeper mutant T145Q; settings: Ki, absence of MTIP
Sequence of PfCDPK1 T145Q (P62344 whole entry T145Q): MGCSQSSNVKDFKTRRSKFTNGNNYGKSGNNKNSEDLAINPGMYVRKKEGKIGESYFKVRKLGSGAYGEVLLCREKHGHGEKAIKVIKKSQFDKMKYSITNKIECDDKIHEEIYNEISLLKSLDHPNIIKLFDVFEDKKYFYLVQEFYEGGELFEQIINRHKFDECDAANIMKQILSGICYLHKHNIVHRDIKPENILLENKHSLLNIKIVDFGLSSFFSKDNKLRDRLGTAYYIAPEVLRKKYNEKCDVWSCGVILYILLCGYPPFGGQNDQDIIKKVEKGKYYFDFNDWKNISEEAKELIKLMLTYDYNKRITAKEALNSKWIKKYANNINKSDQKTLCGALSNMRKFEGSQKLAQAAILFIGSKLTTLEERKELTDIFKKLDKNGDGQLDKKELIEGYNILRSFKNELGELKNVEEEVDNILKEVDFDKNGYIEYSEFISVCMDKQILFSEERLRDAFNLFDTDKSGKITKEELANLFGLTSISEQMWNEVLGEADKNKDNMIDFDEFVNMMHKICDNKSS

[7] = set-up: method as in PMID 24689770; settings: cited from earlier work
[8] = test system: P. falciparum 3D7; test: FACS assay for parasite growth
[9] = P. berghei mouse model; cited from earlier work
[10] = read-out: IC50 With 30 μM ATP, 30 μM ATP, Rh-ParM ADP detection
[11] = read-out: IC50 With 1 mM ATP, 1 mM ATP, Rh-ParM ADP detection

IC50 ratio (IC50 with 1 mM ATP/IC50 with 30 μM ATP) ([3]; Rh-ParM) | IC50 [3, 10] | IC50 [3, 11] | Structure (SMILES) | IC50 ratio (ATP depletion/radiometric assay) [1] | IC50 [1] | IC50 [2] | also measured
 |  |  | O=C(NCc1ccccc1)c1ccc(-c2cnc3ccc(NCCc4cccnc4)nn23)cc1 [Compound 47] | 3.9 | 7 nM | 27 nM | 
53 | 86 nM | 4530 nM | CC(C)Oc1ccc(CNC(=O)c2ccc(-n3cnc4cccnc43)cc2)cc1 [Compound 18] |  |  |  | 
41 | 143 nM | 5930 nM | Cc1c(C(=O)N(C)C2CCCCC2)noc1COc1ccc(-n2cncn2)cc1 [Compound 21] |  |  |  | 
 |  |  | c1ccc(-n2cc(-c3cnc4ccc(NC5CCNCC5)nn34)cn2)cc1 [Compound 44] |  |  |  | IC50 ratio PbCDPK1/PfCDPK1 [4]: 4.3; IC50 ([4]; read-out: IC50 PbCDPK1, Rh-ParM, absence of MTIP, ATP at Km, mean (SD), n = 2): 463 nM; IC50 ratio PvCDPK1/PfCDPK1 [5]: 0.6; IC50 ([5]; ATP at Km, n = 2): 59 nM; IC50 ([3]; read-out: IC50 PfCDPK1, Rh-ParM, ATP at Km): 107 nM
17 | 212 nM | 3580 nM | N#Cc1cccc(-c2cnn3ccc(NCCc4cccnc4)nc23)c1 [Compound 13] |  |  |  | 
>3 | 39800 nM | > 100000 nM | COc1ccc(NC(=O)CSc2nccn(-c3ccc(OC)cc3)c2=O)cc1 [Compound 23] |  |  |  | 
 |  |  | CN[C@@H]1C[C@H]2O[C@@](C)([C@@H]1OC)n1c3ccccc3c3c4c(c5c6ccccc6n2c5c31)C(=O)NC4 [Staurosporine] |  |  |  | difference in potency between wild-type enzyme and T145Q [6]: no substantial differences
 |  |  | c1cncc(CCNc2ccc3ncc(-c4ccc5c(c4)OCO5)n3n2)c1 [Compound 50] | 4.1 | 10 nM | 41 nM | 
 |  |  | CN1CCC(Nc2ccc3ncc(-c4ccc(Nc5ncccc5F)cc4)n3n2)CC1 [Compound 3] |  |  |  | IC50 ([5]; n = 3): < 10 nM; mlogD [7]: 3.2
 |  |  | NC1CCC(Nc2ccc3ncc(-c4cnc(Nc5ncccc5F)nc4)n3n2)CC1 (stereo not drawn) [Compound 2] |  |  |  | EC50 ([8]; read-out: Parasite growth inhibition EC50, FACS, mean (SD), n = 3): 13 nM; mlogD [7]: 0.2; plasma exposure [9]: poor plasma exposure
44 | 728 nM | 31700 nM | CN(C(=O)c1cc(COc2ccc(-n3ccnc3)cc2)on1)C1CCCCC1 [Compound 20] |  |  |  | 
 |  |  | C[C@@H]1CC[C@H]2[C@@H](C)C(=O)O[C@@H]3O[C@@]4(C)CC[C@@H]1[C@]32OO4 [artemisinin, reference compound] |  |  |  | EC50 ([8]; Plasmodium falciparum, 3D7, 48 h, read-out: mean EC50, positive controls in parasite growth assay): 13 nM
>3 | 34200 nM | > 100000 nM | CCc1ccccc1NC(=O)CSc1nccn(-c2ccc(OC)cc2)c1=O [Compound 22] |  |  |  | 

Structure (SMILES) | IC50 ratio (IC50 with 1 mM ATP/IC50 with 30 μM ATP) ([3]; Rh-ParM) | IC50 [3, 10] | IC50 [3, 11] | IC50 ratio (ATP depletion/radiometric assay) [1] | IC50 [1] | IC50 [2] | also measured
NC(=O)c1ccc(-c2cnn3ccc(NCCc4cccnc4)nc23)cc1 [Compound 15] | 12 | 23 nM | 270 nM | 2.7 | 12 nM | 32 nM | 
CC(=O)Nc1cccc(-c2cnn3ccc(NCCc4cccnc4)nc23)c1 [Compound 14] | 27 | 28 nM | 745 nM | 3.5 | 15 nM | 52 nM | 
CC(=O)Nc1cccc(-c2cnc3ccc(NCCc4cccnc4)nn23)c1 [Compound 11] | 28 | 49 nM | 1380 nM | 3.0 | 22 nM | 65 nM | 
COc1ccc2ncc(-c3ccc(C(=O)NCc4ccccc4)cc3)n2n1 [Compound 12] | 37 | 107 nM | 3910 nM | 5.9 | 34 nM | 200 nM | 
